From ChEMBL document CHEMBL6092180 (Eur J Med Chem, 2024)
Converted amounts (≈) assume the structure as drawn. The source made the active and inactive calls. The rule behind the calls is not given here.

Experiments:
[1] = test system: Candida albicans; assay: Antifungal activity against fluconazole and iodiconazole resistant Candida albicans clinical isolate 17# assessed as inhibition of fungal growth by CLSI M27-A3 guidelines based method; assay type: functional
[2] = test system: Candida albicans; assay: Antifungal activity against fluconazole-resistant Candida albicans clinical isolate 100 assessed as inhibition of fungal growth by CLSI M27-A3 guidelines based method; assay type: functional
[3] = test system: Candida albicans; assay: Antifungal activity against fluconazole-resistant Candida albicans clinical isolate 632 assessed as inhibition of fungal growth by CLSI M27-A3 guidelines based method; assay type: functional
[4] = test system: Candida albicans; assay: Antibiofilm activity against fluconazole-resistant Candida albicans CPCC400616 assessed as inhibition of metabolic activity of biofilm measured after 24 hrs by XTT reduction assay; assay type: functional
[5] = Cytotoxicity against HUVEC cells assessed as inhibition of cell growth incubated for 72 hrs by MTT assay; assay type: toxicity, cell-based; conditions: human
[6] = test system: Candida albicans; assay: Antifungal activity against fluconazole-resistant Candida albicans CaR assessed as inhibition of fungal growth by CLSI M27-A3 guidelines based method; assay type: functional
[7] = test system: Pichia kudriavzevii; assay: Antifungal activity against Candida krusei GIM 2.1 assessed as inhibition of fungal growth by CLSI M27-A3 guidelines based method; assay type: functional
[8] = test system: Candida albicans; assay: Antibiofilm activity against fluconazole-resistant Candida albicans CPCC400616 assessed as inhibition of metabolic activity of biofilm measured after 6 hrs by XTT reduction assay; assay type: functional
[9] = test system: Candida albicans; assay: Antifungal activity against Candida albicans SC5314 assessed as inhibition of fungal growth by CLSI M27-A3 guidelines based method; assay type: functional
[10] = test system: Candida tropicalis; assay: Antifungal activity against Candida tropicalis GIM 2.183 assessed as inhibition of fungal growth by CLSI M27-A3 guidelines based method; assay type: functional
[11] = test system: Aspergillus fumigatus; assay: Antifungal activity against Aspergillus fumigatus cgmcc 3.7795 assessed as inhibition of fungal growth by CLSI M27-A3 guidelines based method; assay type: functional
[12] = test system: Candida albicans; assay: Antifungal activity against fluconazole-resistant Candida albicans clinical isolate 904 assessed as inhibition of fungal growth by CLSI M27-A3 guidelines based method; assay type: functional
[13] = Metabolic stability in human liver microsomes assessed as half-life preincubated for 10 mins followed by NADPH addition and measured after 60 mins by LC-MS/MS analysis; assay type: ADME, Microsome; conditions: time 70 min
[14] = Cytotoxicity against human OVCAR-3 cells assessed as inhibition of cell growth incubated for 72 hrs by MTT assay; assay type: toxicity, cell-based
[15] = test system: Candida albicans; assay: Selectivity ratio of MFC for fungicidal activity against Candida albicans SC5314 to MIC80 for antifungal activity against Candida albicans SC5314; assay type: functional
[16] = test system: Candida albicans; assay: Fungicidal activity fluconazole and iodiconazole resistant Candida albicans clinical isolate 17# assessed as decrease in number of fungi at 8 times of MIC measured within 24 hrs by time-kill kinetics assay; assay type: functional, organism-based
[17] = test system: Candida albicans; assay: Antifungal activity against fluconazole-resistant Candida albicans clinical isolate 901 assessed as inhibition of fungal growth by CLSI M27-A3 guidelines based method; assay type: functional
[18] = test system: Candida albicans; assay: Antifungal activity against Candida albicans GIM 2.194 assessed as inhibition of fungal growth by CLSI M27-A3 guidelines based method; assay type: functional
[19] = test system: Candida albicans; assay: Fungicidal activity against fluconazole and iodiconazole resistant Candida albicans clinical isolate 17# incubated for 48 hrs by PDA plate based method; assay type: functional
[20] = Cytotoxicity against HEK293T cells assessed as inhibition of cell growth incubated for 72 hrs by MTT assay; assay type: toxicity, cell-based, HEK-293T; conditions: human
[21] = Cytotoxicity against human NCI-H460 cells assessed as inhibition of cell growth incubated for 72 hrs by MTT assay; assay type: toxicity, cell-based
[22] = test system: Candida albicans; assay: Antifungal activity against fluconazole-resistant Candida albicans clinical isolate 311 assessed as inhibition of fungal growth by CLSI M27-A3 guidelines based method; assay type: functional
[23] = test system: Candida parapsilosis; assay: Antifungal activity against Candida parapsilosis GIM 2.190 assessed as inhibition of fungal growth by CLSI M27-A3 guidelines based method; assay type: functional; conditions: Lodderomyces parapsilosis
[24] = test system: Nakaseomyces glabratus; assay: Antifungal activity against Candida glabrata assessed as inhibition of fungal growth by CLSI M27-A3 guidelines based method; assay type: functional
[25] = Metabolic stability in human liver microsomes assessed as parent compound remaining preincubated for 10 mins followed by NADPH addition and measured after 60 mins by LC-MS/MS analysis; assay type: ADME, Microsome; conditions: time 70 min, read-out: Stability
[26] = test system: Cryptococcus neoformans; assay: Antifungal activity against Cryptococcus neoformans CGMCC 2.3161 assessed as inhibition of fungal growth by CLSI M27-A3 guidelines based method; assay type: functional
[27] = test system: Candida albicans; assay: Fungicidal activity against Candida albicans SC5314 incubated for 48 hrs by PDA plate based method; assay type: functional
[28] = test system: Candida albicans; assay: Antifungal activity against fluconazole-resistant Candida albicans clinical isolate 103 assessed as inhibition of fungal growth by CLSI M27-A3 guidelines based method; assay type: functional

Work on `CN(Cc1ccc(I)cc1)CC(O)(Cn1cncn1)c1ccc(F)cc1F` (stereo not drawn) yielded an MIC80 [1] of 0.25 µg/mL (≈ 0.516 µM), an MIC80 [2] of 2 µg/mL (≈ 4.13 µM) and an MIC80 [3] of 16 µg/mL (≈ 33 µM). It also gave an MIC50 [4] of 16 µg/mL (≈ 33 µM), an IC50 at 72 h [5] of over 10 µM and an MIC80 [6] of 2 µg/mL (≈ 4.13 µM). The MIC80 [7] was 0.2 µg/mL (≈ 0.413 µM), the MIC50 [8] was 8 µg/mL (≈ 16.5 µM) and the MIC80 [9] was 0.013 µg/mL (≈ 0.0268 µM). For the same molecule, the MIC80 [10] was 0.013 µg/mL (≈ 0.0268 µM), the MIC80 [11] was 0.25 µg/mL (≈ 0.516 µM) and the MIC80 [12] was 8 µg/mL (≈ 16.5 µM). For the same molecule, the half-life [13] was 20.4 min, the IC50 at 72 h [14] was over 10 µM and the Selectivity ratio [15] was over 256. The Activity [16] was “inactive”, the MIC80 [17] was over 64 µg/mL and the MIC80 [18] was 0.025 µg/mL (≈ 0.0516 µM). For the same molecule, the MFC [19] was 32 µg/mL (≈ 66.1 µM), the IC50 at 72 h [20] was over 10 µM and the IC50 at 72 h [21] was over 10 µM. The MIC80 [22] was over 64 µg/mL, the MIC80 [23] was 0.025 µg/mL (≈ 0.0516 µM) and the MIC80 [24] was 0.2 µg/mL (≈ 0.413 µM). The remaining at 1 h [25] was 13.1%, the MIC80 [26] was 0.1 µg/mL (≈ 0.206 µM) and the MFC [27] was 32 µg/mL (≈ 66.1 µM). The MIC80 [28] was 32 µg/mL (≈ 66.1 µM).
